Source: patent publication US8754128B2, “Dioxoanthracene sulphonate derivatives” (Laboratoire Medidom SA, priority 2007, dated 2014)
Converted amounts (≈) assume the structure as drawn.

Experiments:
[1] = test system: colon and kidney cells; conditions: Comet assay, Müller et al. 1996; cited from earlier work
[2] = Solubility in water; format: physicochemical; conditions: for solubility of test solutions for chondrocyte culture: rhein needed five minutes sonication; for solubility in water (in words): water / aqueous solution
[3] = test system: IL-1 β cytokine production by human normal and osteoarthritic (OA) chondrocytes; assay: In vitro IL-1β inhibition in LPS-stimulated human chondrocytes (ELISA); format: cell-based
Source text: The activity of the compound of example 1, and of rhein in inhibiting the lipopolysaccharide (LPS) stimulated production of IL-1 β cytokine by human normal and osteoarthritic (OA) chondrocytes was studied.
Human cartilage was obtained during orthopaedic surgery for total hip prosthesis due to traumatic fracture in normal subjects or OA patients. Patients with OA were selected on the basis of the following criteria (1) bi-lateral OA, (2) diagnoses of moderate OA (grade I-III, Kellgren-Laurence), supported by radiology and pathology.
A suspension of isolated chondrocytes was prepared from cartilage specimens obtained from four OA patient and nine normal subjects. Specimens were obtained and maintained under aseptic conditions. The cartilage was cut into small fragments and incubated with 1 mg/ml clostridial collagenase in carbonate/bicarbonate buffer for 48 hours at 37° C. Once separated from the cartilage matrix, chondrocytes were centrifuged at 1500 RPM for five minutes. The separated chondrocytes, suspended in culture medium (DMEM supplemented with 10% SCF) were used for the experiment. Cell viability was evaluated by Trypan blue exclusion.
In vitro stimulation of chondrocytes with bacterial endotoxin (LPS) for the production of IL-1 β was carried out as follows: […]

| Structure (SMILES) | solubility of test solutions for chondrocyte culture [2] | solubility in water (in words) [2] | other results |
| --- | --- | --- | --- |
| O=C1c2cccc(O)c2C(=O)c2c(O)cc(CO)cc21 [Aloe-emodin] | – | – | clastogenic effect [1]: clastogenic effect in colon and kidney cells |
| O=C(O)c1cc(O)c2c(c1)C(=O)c1ccc(S(=O)(=O)O)c(O)c1C2=O [Example 1, 6-sulfo-4,5-dihydroxy-9,10-dioxo-2-anthracene carboxylic acid] | good solubility | – | solubility ([2]; water): 1200 µg/mL (≈ 3.29 mM); IL-1β inhibition activity compared with rhein (FIG. 3) ([3]; LPS-stimulated normal and OA chondrocytes, 48 hours, ELISA): significantly increased IL-1β inhibition activity compared with rhein; inhibition of IL-1β production (FIG. 4) ([3]; LPS-stimulated normal chondrocytes, dose-dependent): significant inhibition of IL-1β production |
| CC(=O)Oc1cccc2c1C(=O)c1c(OC(C)=O)cc(C(=O)O)cc1C2=O [diacerein] | – | practically insoluble in water | – |
| O=C(O)c1cc(O)c2c(c1)C(=O)c1cccc(O)c1C2=O [rhein, 4,5-dihydroxy-9,10-dioxo-2-anthracene carboxylic acid] | solubility problems | practically insoluble in water | – |
